In PubChem BioAssay (NCI):
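Results reflect a 48-hour exposure of cells in 96-well plates to compound at five concentrations. GI50 is the concentration that inhibits growth by half. TGI is the concentration that stops growth completely.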

Legend:
Experiment in all cases: growth of human tumour cells (NCI), 48 h
[1] = tested on: HCT-15 colon
[2] = tested on: MOLT-4 leukemia
[3] = tested on: RXF 393 renal
[4] = tested on: UACC-257 melanoma
[5] = tested on: OVCAR-8 ovarian
[6] = tested on: U251 CNS
[7] = tested on: RPMI-8226 leukemia
[8] = tested on: UACC-62 melanoma
[9] = tested on: HOP-92 NSCLC
[10] = tested on: LOX IMVI melanoma
[11] = tested on: OVCAR-3 ovarian
[12] = tested on: HT29 colon
[13] = tested on: EKVX NSCLC
[14] = tested on: HL-60(TB) leukemia
[15] = tested on: COLO 205 colon
[16] = tested on: SF-268 CNS
[17] = tested on: HCT-116 colon
[18] = tested on: NCI-H226 lung
[19] = tested on: SNB-19 CNS
[20] = tested on: NCI-H460 lung
[21] = tested on: SK-MEL-2 melanoma
[22] = tested on: A549 NSCLC
[23] = tested on: SK-MEL-28 melanoma
[24] = tested on: NCI/ADR-RES ovarian
[25] = tested on: SN12C renal
[26] = tested on: NCI-H23 lung
[27] = tested on: HOP-62 NSCLC
[28] = tested on: A498 renal
[29] = tested on: SF-539 CNS
[30] = tested on: MCF7 breast
[31] = tested on: BT-549 breast
[32] = tested on: NCI-H522 lung
[33] = tested on: SK-OV-3 ovarian
[34] = tested on: MDA-MB-435
[35] = tested on: IGROV1 ovarian
[36] = tested on: ACHN renal
[37] = tested on: SW-620 colon
[38] = tested on: HS 578T breast
[39] = tested on: 786-0 renal
[40] = tested on: SNB-75 CNS
[41] = tested on: OVCAR-5 ovarian
[42] = tested on: UO-31 renal
[43] = tested on: MDA-MB-231 breast
[44] = tested on: PC-3 prostate
[45] = tested on: CAKI-1 renal
[46] = tested on: DU-145 prostate
[47] = tested on: SR leukemia
[48] = tested on: K-562 leukemia
[49] = tested on: SF-295 CNS
[50] = tested on: M14 melanoma
[51] = tested on: OVCAR-4 ovarian
[52] = tested on: SK-MEL-5 melanoma
[53] = tested on: TK-10 renal
[54] = tested on: CCRF-CEM leukemia
[55] = tested on: HCC-2998 colon
[56] = tested on: MALME-3M melanoma

## Clc1ccc(-c2nc(-c3ccccc3)cn3ccnc23)cc1
[1]
  GI50: 1.8 µM
  TGI: 18 µM
[2]
  GI50: 5.89 µM
  TGI: > 100 µM
[3]
  GI50: 2.72 µM
  TGI: 28.6 µM
[4]
  GI50: 20 µM
  TGI: 46.5 µM
[5]
  GI50: 20.6 µM
  TGI: 57.2 µM
[6]
  GI50: 6.61 µM
  TGI: 19.9 µM
[7]
  GI50: 3.44 µM
  TGI: 31.2 µM
[8]
  GI50: 17.7 µM
  TGI: 70 µM
[9]
  GI50: 11.1 µM
  TGI: 32.7 µM
[10]
  GI50: 5.1 µM
  TGI: 19.5 µM
[11]
  GI50: 1.82 µM
  TGI: 16.8 µM
[12]
  GI50: 7.45 µM
  TGI: 56.7 µM
[13]
  GI50: 10 µM
  TGI: 48.8 µM
[14]
  GI50: 5.05 µM
  TGI: > 100 µM
[15]
  GI50: 18.6 µM
  TGI: > 100 µM
[16]
  GI50: 10.6 µM
  TGI: 33 µM
[17]
  GI50: 6.39 µM
  TGI: 21.5 µM
[18]
  GI50: 74.7 µM
  TGI: > 100 µM
[19]
  GI50: 25.6 µM
  TGI: > 100 µM
[20]
  GI50: 20.2 µM
  TGI: > 100 µM
[21]
  GI50: 53.4 µM
  TGI: > 100 µM
[22]
  GI50: 11 µM
  TGI: 29 µM
[23]
  GI50: 14.9 µM
  TGI: 58.3 µM
[24]
  GI50: 6.53 µM
  TGI: 25.9 µM
[25]
  GI50: 21.3 µM
  TGI: > 100 µM
[26]
  GI50: 12.5 µM
  TGI: 36.4 µM
[27]
  GI50: 16.1 µM
  TGI: 52.5 µM
[28]
  GI50: 0.836 µM
  TGI: 16.1 µM
[29]
  GI50: 11.7 µM
  TGI: 31.8 µM
[30]
  GI50: 7.16 µM
  TGI: > 100 µM
[31]
  GI50: 11.3 µM
  TGI: 34.3 µM
[32]
  GI50: > 100 µM
  TGI: > 100 µM
[33]
  GI50: 32 µM
  TGI: > 100 µM
[34]
  GI50: 1.43 µM
  TGI: 7.52 µM
[35]
  GI50: 15.5 µM
  TGI: > 100 µM
[36]
  GI50: 11.4 µM
  TGI: 26.1 µM
[37]
  GI50: 4.75 µM
  TGI: 41.1 µM
[38]
  TGI: 17 µM
[39]
  GI50: 14 µM
  TGI: 37.3 µM
[40]
  GI50: 13 µM
  TGI: 72 µM
[41]
  GI50: 15.7 µM
  TGI: 44.7 µM
[42]
  GI50: 20.2 µM
  TGI: > 100 µM
[43]
  GI50: 12.3 µM
  TGI: 55.5 µM
[44]
  GI50: 14.2 µM
  TGI: 53.7 µM
[45]
  GI50: 1.49 µM
  TGI: 17.7 µM
[46]
  GI50: 11.9 µM
  TGI: 34.9 µM
[47]
  GI50: 0.627 µM
  TGI: > 100 µM
[48]
  GI50: 2.65 µM
  TGI: > 100 µM
[49]
  GI50: 3.1 µM
  TGI: 16.7 µM
[50]
  GI50: 10.6 µM
  TGI: 27.4 µM
[51]
  GI50: 14.6 µM
  TGI: 51.3 µM
[52]
  GI50: 7.3 µM
  TGI: 27.2 µM

## N=c1c2ccccc2nc2oc3ccccc3n12
[1]
  TGI: > 100 µM
[53]
  TGI: 87.3 µM
[4]
  TGI: > 100 µM
[5]
  TGI: > 100 µM
[7]
  TGI: > 100 µM
[8]
  TGI: > 100 µM
[9]
  TGI: 80.6 µM
[10]
  TGI: > 100 µM
[12]
  TGI: > 100 µM
[13]
  TGI: 29.9 µM
[14]
  TGI: > 100 µM
[15]
  TGI: > 100 µM
[16]
  TGI: 28 µM
[17]
  TGI: > 100 µM
[19]
  TGI: > 100 µM
[21]
  TGI: > 100 µM
[22]
  TGI: > 100 µM
[24]
  TGI: > 100 µM
[25]
  TGI: > 100 µM
[26]
  TGI: > 100 µM
[27]
  TGI: 88.2 µM
[54]
  TGI: > 100 µM
[28]
  TGI: > 100 µM
[29]
  TGI: > 100 µM
[30]
  TGI: > 100 µM
[31]
  TGI: > 100 µM
[33]
  TGI: > 100 µM
[34]
  TGI: > 100 µM
[35]
  TGI: > 100 µM
[36]
  TGI: > 100 µM
[37]
  TGI: > 100 µM
[38]
  TGI: 60.3 µM
[41]
  TGI: > 100 µM
[42]
  TGI: > 100 µM
[44]
  TGI: > 100 µM
[45]
  TGI: > 100 µM
[55]
  TGI: > 100 µM
[48]
  TGI: > 100 µM
[49]
  TGI: > 100 µM
[56]
  TGI: > 100 µM
[51]
  TGI: 61.4 µM
[52]
  TGI: 69.5 µM
